According to patent US6737383B1, “Herbicidal oxadiazolidines” (priority 1999, dated 2004):

Legend:
[1] = tested on: common groundsel; test: Test D common groundsel; type: in vivo, Senecio vulgaris; conditions: Preemergence, 0 to 100 scale
Method in brief: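 Values are visual plant-response ratings (0 no injury, 100 complete control) recorded 14 to 21 days after herbicide treatment, using a non-phytotoxic solvent mixture containing surfactant. Preemergence applications went to the surface of pots holding freshly sown seed in sandy loam.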

[2] = tested on: arrowleaf sida; test: Test C postemergence arrowleaf sida; type: in vivo, Sida rhombifolia; conditions: 0 to 100 scale, 0 no effect, 100 complete control
Method in brief: (§1)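 Greenhouse postemergence test: compound applied in solvent/surfactant formulation to established plants; visual scoring 0–100 against untreated controls after roughly two to three weeks (14–21 days).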

[3] = tested on: cotton; test: Test C postemergence cotton; type: in vivo, Gossypium hirsutum; conditions: 0 to 100 scale, 0 no effect, 100 complete control
Method: (§2) Compounds evaluated in this test were formulated in a non-phytotoxic solvent mixture which included a surfactant and applied to plants that were grown for various periods of time before treatment (postemergence application). A mixture of sandy loam soil and greenhouse potting mix in a 60:40 ratio was used for the postemergence test.
Plantings of these crops and weed species were adjusted to produce plants of appropriate size for the postemergence test. All plant species were grown using normal greenhouse practices. Crop and weed species include arrowleaf sida (Sida rhombifolia), barnyardgrass (Echinochloa crus-galli), cocklebur (Xanthium strumarium), common ragweed (Ambrosia elatior), corn (Zea mays), cotton (Gossypium hirsutum), eastern black nightshade (Solanum ptycanthum), fall panicum (Panicum dichotomiflorum), field bindweed (Convolvulus arvensis), giant foxtail (Setaria faberii), hairy beggarticks (Bidens pilosa), ivyleaf morningglory (Ipomoea hederacea), johnsongrass (Sorghum halepense), ladysthumb smartweed (Polygonum persicaria), lambsquarters (Chenopodium album), large crabgrass (Digitaria sanguinalis), purple nutsedge (Cyperus rotundus), redroot pigweed (Amaranthus retroflexus), soybean (Glycine max), surinam grass (Brachiaria decumbens), velvetleaf (Abutilon theophrasti) and wild poinsettia (Euphorbia heterophylla).
Treated plants and untreated controls were maintained in a greenhouse for approximately 14, to 21 days, after which all treated plants were compared to untreated controls and visually evaluated. Plant response ratings, summarized in Table C, were based upon a 0 to 100 scale where 0 was no effect and 100 was complete control. A dash response (−) means no test result.

[4] = tested on: johnsongrass; test: Test C postemergence johnsongrass; type: in vivo, Sorghum halepense; conditions: 0 to 100 scale, 0 no effect, 100 complete control
Method in brief: as §1

[5] = tested on: chickweed; test: Test E chickweed; type: in vivo, Stellaria media; conditions: Postemergence; for Plant response rating, Chickweed: 0 to 100 scale; for Chickweed plant response rating: Rate 250 g/ha, 0 to 100 scale where 0 is no effect and 100 is complete control
Method: as §2, with “in the 1- to 4-leaf stage” for “grown for various periods of time before treatment”
(§3) Plantings of these crops and weed species were adjusted to produce plants of appropriate size for the postemergence test. All plant species were grown using normal greenhouse practices. Crop and weed species include annual bluegrass (Poa annua), blackgrass (Alopecurus myosuroides), black nightshade (Solanum nigra), chickweed (Stellaria media), common poppy (Papaver rhoeas), deadnettle (Lamium amplexicaule), downy brome (Bromus tectorum), field violet (Viola arvensis), galium (Galium aparine), green foxtail (Setaria viridis), Italian ryegrass (Lolium multiflorum), jointed goatgrass (Aegilops cylindrica), kochia (Kochia scoparia), lambsquarters (Chenopodium album), littleseed canarygrass (Phalaris minor), rape (Brassica napus), redroot pigweed (Amaranthus retroflexus), Russian thistle (Salsola kali), scentless chamomile (Matricaria inodora), spring barley (Hordeum vulgare), sugar beet (Beta vulgaris), sunflower (Helianthus annuus), ivyleaf speedwell (Veronica hederaefolia), spring wheat (Triticum aestivum), winter wheat (Triticum aestivum), wild buckwheat (Polygonum convolvulus), wild mustard (Sinapis arvensis), wild oat (Avena fatua), windgrass (Apera spica-venti) and winter barley (Hordeum vulgare).
(§4) Treated plants and untreated controls were maintained in a greenhouse for approximately 21 to 28 days, after which all treated plants were compared to untreated controls and visually evaluated. […] A dash response (-) means no test result.

[6] = tested on: green foxtail; test: Test E green foxtail; type: in vivo, Setaria viridis; conditions: Postemergence; for Plant response rating, Green foxtail: 0 to 100 scale; for Green foxtail plant response rating: Rate 250 g/ha, 0 to 100 scale where 0 is no effect and 100 is complete control
Method: as §2, with “in the 1- to 4-leaf stage” for “grown for various periods of time before treatment”
as §3, §4

[7] = tested on: jointed goatgrass; test: Test E jointed goatgrass; type: in vivo, Aegilops cylindrica; conditions: Postemergence; for Plant response rating, Jointed goatgra: 0 to 100 scale; for Jointed goatgra plant response rating: Rate 250 g/ha, 0 to 100 scale where 0 is no effect and 100 is complete control
Method in brief: (§5)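 For postemergence, plants at the 1- to 4-leaf stage, in a 60:40 mix of sandy loam and potting mix, treated with compound formulated in a surfactant-containing non-phytotoxic solvent. Visual assessment versus untreated controls followed roughly 21–28 days in the greenhouse.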

[8] = tested on: winter barley; test: Test E winter barley; type: in vivo, Hordeum vulgare; conditions: Postemergence; for Plant response rating, Barley (winter): 0 to 100 scale; for Barley (winter) plant response rating: Rate 250 g/ha, 0 to 100 scale where 0 is no effect and 100 is complete control
Method in brief: as §5

[9] = tested on: jointed goatgrass; test: Test E jointed goatgrass; type: in vivo, Aegilops cylindrica; conditions: Preemergence; for Jointed goatgra plant response rating (0 to 100 scale): Rate 250 g/ha
[10] = tested on: littleseed canarygrass; test: Test E littleseed canarygrass; type: in vivo, Phalaris minor; conditions: Preemergence; for LS canarygrass plant response rating (0 to 100 scale): Rate 250 g/ha
[11] = tested on: spring wheat; test: Test E spring wheat; type: in vivo, Triticum aestivum; conditions: Preemergence; for Spring Wheat plant response rating (0 to 100 scale): Rate 250 g/ha
[12] = tested on: common ragweed; test: Test D common ragweed; type: in vivo, Ambrosia elatior; conditions: Postemergence, 0 to 100 scale
[13] = tested on: dallisgrass; test: Test D dallisgrass; type: in vivo, Paspalum dilatatum; conditions: Postemergence, 0 to 100 scale
[14] = tested on: sandbur; test: Test D sandbur; type: in vivo, Cenchrus echinatus; conditions: Postemergence, 0 to 100 scale
[15] = Rate 16 g/ha, 0 no injury, 100 complete control
[16] = Rate 32 g/ha, 0 no injury, 100 complete control
[17] = Rate 64 g/ha, 0 no injury, 100 complete control
[18] = Rate 125 g/ha, 0 no injury, 100 complete control
[19] = Rate 125 g/ha, 0 to 100 scale (0 no effect, 100 complete control)
[20] = Rate 125 g/ha, 0 is no effect, 100 is complete control
[21] = Rate 500 g/ha, 0 is no effect, 100 is complete control
[22] = Rate 500 g/ha, 0 to 100 scale where 0 is no effect and 100 is complete control

COc1ccccc1-n1c(=O)on(C(=O)N(c2ccc(F)cc2)C(C)C)c1=O [Compound 30]
Plant response rating, Com. groundsel [1, 15]: 0
Plant response rating, Com. groundsel [1, 16]: 0
Plant response rating, Com. groundsel [1, 17]: 0
Plant response rating, Com. groundsel [1, 18]: 0
Plant response rating, Com. groundsel ([1]; Rate 250 g/ha): 0
Plant response rating, Com. groundsel ([1]; Rate 500 g/ha): 100

CC(C)N(C(=O)n1oc(=O)n(Cc2ccccc2)c1=O)c1ccc(F)cc1 [Compound 78]
Plant response rating, Com. groundsel [1, 15]: 0
Plant response rating, Com. groundsel [1, 16]: 0
Plant response rating, Com. groundsel [1, 17]: 0
Plant response rating, Com. groundsel [1, 18]: 0
Plant response rating, Com. groundsel ([1]; Rate 250 g/ha): 0
Plant response rating, Com. groundsel ([1]; Rate 500 g/ha): 0

CC(C)N(C(=O)n1oc(=O)n(C2CCCCC2)c1=O)c1ccccc1 [Compound 112]
Plant response rating, Com. groundsel [1, 15]: 0
Plant response rating, Com. groundsel [1, 16]: 0
Plant response rating, Com. groundsel [1, 17]: 0
Plant response rating, Com. groundsel ([1]; Rate 250 g/ha): 0
Plant response rating, Com. groundsel ([1]; Rate 500 g/ha): 10

CC(C)N(C(=O)n1oc(=O)n(C)c1=O)c1ccc(F)cc1 [Compound 138]
Plant response rating Arrowleaf sida ([2]; Rate 140 g/ha): 0
Plant response rating Arrowleaf sida ([2]; Rate 1120 g/ha): 70
Plant response rating Cotton ([3]; Rate 140 g/ha): 5
Plant response rating Cotton ([3]; Rate 280 g/ha): 30
Plant response rating Cotton ([3]; Rate 560 g/ha): 40
Plant response rating Cotton ([3]; Rate 1120 g/ha): 70
Plant response rating, Johnsongrass ([4]; Rate 140 g/ha): 0
Plant response rating, Johnsongrass ([4]; Rate 280 g/ha): 20
Plant response rating, Johnsongrass ([4]; Rate 560 g/ha): 60
Plant response rating, Johnsongrass ([4]; Rate 1120 g/ha): 90
Plant response rating, Com. groundsel [1, 17]: 40
Plant response rating, Com. groundsel [1, 18]: 100
Plant response rating, Com. groundsel ([1]; Rate 250 g/ha): 100
Plant response rating, Com. groundsel ([1]; Rate 500 g/ha): 100
Plant response rating, Chickweed ([5]; Rate 125 g/ha): 0
Chickweed plant response rating [5]: 0
Plant response rating, Green foxtail ([6]; Rate 125 g/ha): 15
Green foxtail plant response rating [6]: 70
Plant response rating, Jointed goatgra ([7]; Rate 125 g/ha): 0
Jointed goatgra plant response rating [7]: 0
Plant response rating, Barley (winter) ([8]; Rate 125 g/ha): 0
Barley (winter) plant response rating [8]: 0
Plant response rating, Jointed goatgra [9, 19]: 65
Jointed goatgra plant response rating (0 to 100 scale) [9]: 80
Plant response rating, LS canarygrass [10, 19]: 70
LS canarygrass plant response rating (0 to 100 scale) [10]: 85
Plant response rating, Spring Wheat [11, 19]: 55
Spring Wheat plant response rating (0 to 100 scale) [11]: 100

CC(C)N(C(=O)n1oc(=O)n(N(C)C)c1=O)c1ccc(F)cc1 [Compound 170]
Plant response rating, Com. groundsel [1, 15]: 0
Plant response rating, Com. groundsel [1, 16]: 0
Plant response rating, Com. groundsel [1, 17]: 0
Plant response rating, Com. groundsel [1, 18]: 45
Plant response rating, Com. groundsel ([1]; Rate 250 g/ha): 45
Plant response rating, Com. groundsel ([1]; Rate 500 g/ha): 100

CC(C)N(C(=O)n1oc(=O)n(C2CC2)c1=O)c1ccc(F)cc1 [Compound 242]
Plant response rating Arrowleaf sida ([2]; Rate 140 g/ha): 10
Plant response rating Arrowleaf sida ([2]; Rate 280 g/ha): 30
Plant response rating Arrowleaf sida ([2]; Rate 560 g/ha): 70
Plant response rating Arrowleaf sida ([2]; Rate 1120 g/ha): 90
Plant response rating Cotton ([3]; Rate 140 g/ha): 0
Plant response rating Cotton ([3]; Rate 280 g/ha): 20
Plant response rating Cotton ([3]; Rate 560 g/ha): 45
Plant response rating Cotton ([3]; Rate 1120 g/ha): 70
Plant response rating, Johnsongrass ([4]; Rate 140 g/ha): 45
Plant response rating, Johnsongrass ([4]; Rate 280 g/ha): 45
Plant response rating, Johnsongrass ([4]; Rate 560 g/ha): 60
Plant response rating, Johnsongrass ([4]; Rate 1120 g/ha): 90
Plant response rating, Chickweed ([5]; Rate 62 g/ha): 0
Plant response rating, Chickweed [5, 20]: 30
Chickweed plant response rating [5]: 0
Plant response rating, Chickweed [5, 21]: 50
Plant response rating, Green foxtail ([6]; Rate 62 g/ha): 60
Plant response rating, Green foxtail [6, 20]: 30
Green foxtail plant response rating [6]: 60
Plant response rating, Green foxtail [6, 21]: 70
Plant response rating, Jointed goatgra ([7]; Rate 62 g/ha): 55
Plant response rating, Jointed goatgra [7, 20]: 0
Jointed goatgra plant response rating [7]: 0
Plant response rating, Jointed goatgra [7, 21]: 40
Plant response rating, Barley (winter) ([8]; Rate 62 g/ha): 20
Plant response rating, Barley (winter) [8, 20]: 0
Barley (winter) plant response rating [8]: 10
Plant response rating, Barley (winter) [8, 21]: 20
Plant response rating, C. ragweed [12, 15]: 50
Plant response rating, C. ragweed [12, 16]: 30
Plant response rating, C. ragweed [12, 17]: 30
Plant response rating, C. ragweed [12, 18]: 90
Plant response rating, C. ragweed ([12]; Rate 250 g/ha): 100
Plant response rating, Dallisgrass [13, 15]: 60
Plant response rating, Dallisgrass [13, 16]: 90
Plant response rating, Dallisgrass [13, 17]: 90
Plant response rating, Dallisgrass [13, 18]: 100
Plant response rating, Dallisgrass ([13]; Rate 250 g/ha): 100
Plant response rating, Sandbur [14, 15]: 20
Plant response rating, Sandbur [14, 16]: 30
Sandbur plant response rating [14, 17]: 50
Sandbur plant response rating [14, 18]: 100
Plant response rating, Sandbur ([14]; Rate 250 g/ha): 100
Plant response rating, Jointed goatgra [9, 19]: 65
Jointed goatgra plant response rating (0 to 100 scale) [9]: 80
Plant response rating, Jointed goatgra [9, 22]: 90
Plant response rating, LS canarygrass [10, 19]: 100
LS canarygrass plant response rating (0 to 100 scale) [10]: 100
Plant response rating, LS canarygrass [10, 22]: 100
Plant response rating, Spring Wheat [11, 19]: 55
Spring Wheat plant response rating (0 to 100 scale) [11]: 60
Plant response rating, Spring Wheat [11, 22]: 100

CC(C)N(C(=O)n1oc(=O)n(C2CCCCCC2)c1=O)c1ccc(F)cc1F [Compound 342]
Plant response rating, C. ragweed [12, 16]: 0
Plant response rating, C. ragweed [12, 17]: 0
Plant response rating, C. ragweed [12, 18]: 0
Plant response rating, C. ragweed ([12]; Rate 250 g/ha): 100
Plant response rating, Dallisgrass [13, 15]: 0
Plant response rating, Dallisgrass [13, 16]: 0
Plant response rating, Dallisgrass [13, 17]: 0
Plant response rating, Dallisgrass [13, 18]: 90
Plant response rating, Dallisgrass ([13]; Rate 250 g/ha): 100
Plant response rating, Sandbur [14, 15]: 0
Plant response rating, Sandbur [14, 16]: 0
Sandbur plant response rating [14, 17]: 0
Plant response rating, Sandbur ([14]; Rate 250 g/ha): 0
